Measurements reported in patent publication US20040247703A1, “Composition for inhibiting glutamate-mediated neurotoxicity comprising ginsenoside Rg3 or ginsenoside Rh2” (priority 2002, published 2004).

Tests used:
[1] = system: cultured cortical neuron; details: literature (Kim, Y. C. et al. 1998); cited from earlier work
[2] = system: hippocampus nerve cells; details: literature (Lim, J. H. et al. 1997); cited from earlier work
[3] = system: NMDA receptor; assay: NMDA receptor-mediated Ca2+ influx by Ca2+-imaging technique (fura-2/AM) in cultured hippocampus nerve cells; assay type: cell-based, mouse; details: for % inhibition of NMDA receptor-mediated [Ca^2+]i infulx: cultured mouse hippocampus nerve cell; for inhibition effect for NMDA receptor activity, screening of pure 20(S) compounds, in words: 9 kinds of 20(S) compounds, FIG. 5; for NMDA receptor-mediated Ca^2+ influx inhibition, comparison of isomer forms, in words: Table 1 comparison of 20(S)-form with mixture of S-form and R-form
Procedure: (§1) Hippocampus nerve tissues were separated from an 18-day-old fetus to 1-day-old newborn white mouse using a dissection microscope. The tissues were treated with Leibovitz L-15 medium (Gibco, Grand Island, N.Y.) including 0.05% papain at 37° C. for 20 minutes. Then, the solution was washed with Ca^2+ or Mg^2+ free Hank's Balanced Salt Solution (Gibco, Grand Island, N.Y.) several times, and the single hippocampus nerve cell was separated mechanically by adjusting the pore size of the Pasteur pipette. The cell was cultured on a cover slip that was treated with poly-L-lysine in a concentration of 1.5×10^5 cell/ml.
(§2) The cell was cultured in a culturing solution of Neurobasla/B27 (Gibco, Grand Island, N.Y.) to which 0.5 mM L-glutamine, 25 μM glutamate, 25 μM 2-mercaptoethanol, 100 U/ml penicillin and 100 μg/ml streptomycin were added. Half of the medium was replaced twice a week with a medium having no added glutamate. Cells that were cultured for 7 to 15 days were used in the experiment.
Fura-2/AM (Molecular probes: Eugene, Oreg.) of the acetoxymethyl-ester form was used as a fluorescent Ca^2+ label. The hippocampus nerve cell was primarily incubated with 5 μM fura-2/AM and 0.001% Pluronic F-127 in HEPES buffer solution (unit mM: 150 NaCl, 5 KCl, 1 MgCl2,2 CaCl2,10 HEPES, 10 glucose, pH 7.4) at room temperature for 40 to 60 minutes and then washed with the HEPES buffer solution several times. After stabilizing the cell for 10 minutes, the change in intracellular Ca ion concentration was determined using an inverted microscope.
Specifically, the cell was exposed selectively to the excitation wavelengths (340 nm and 380 nm) from a xenon arc lamp by a computer-controlled filter wheel (Sutter Instruments, CA). Data was obtained every 2 seconds and a shutter was placed at the light-exposed portion so as to prevent any photo-toxicity on the cell. Emitter fluorescence light, which passed through a 515 nm long-pass filter, reached a cooling CCD camera. The ratios of intensity (340/380 nm) were converted to intracellular free Ca^2+ concentration ([Ca^2+]i) by digital fluorescence analyzer. Analysis of all image data was performed using Universal Imaging software (West Chester, Pa.).
Method for screening NMDA receptor inhibitor via NMDA receptor activity in a hippocampus nerve cell was performed by a Ca^2+-imaging technique using a Ca-dependent dye, fura-2/AM, as explained in Example 2.
Therefore, the system was used in the NMDA receptor inhibitor screening of ginseng components.
As stated above, the experiments of FIGS. 2A to 2C were to determine Ca^2+ influx caused by NMDA activity, when NMDA was administered to the cultured hippocampus nerve cell (5˜10 seconds), by using the Ca^2+-imaging technique. […]

[4] = system: NMDA receptor; assay: NMDA receptor-mediated membrane current by whole-cell patch-clamp in hippocampus nerve cells; assay type: cell-based, mouse; details: 10 μM; FIG. 2D
Procedure: as §1
as §2, with “Cells that were cultured for 7 to 15 days were used in the experiment.” left out
Whole-cell voltage-clamp recordation was carried out using a perforated patch-clamp method. […] After 10 minutes, the membrane current was determined. […]
As a solution that allows only the monovalent ion to pass the membrane to produce an electric current, Nystatin stock solution of 25 mg/ml was diluted into a concentration of 250 μg/ml and added to the internal solution. […] The membrane voltage was recorded using an EPC-9 amplifier and Pulse/Pulsefit software (HEKA, Germany). […]

[5] = system: white mouse hippocampus nerve cells; assay: MTT assay, survival of nerve cells against cytotoxicity by NMDA; assay type: cell-based; details: pretreated 1 minute, NMDA 10 minutes, MTT after 24 hours; 100 μg/ml GTS, 10 μM Rg3; FIG. 3
Procedure: 3-(4,5-dimethylthiazole-2-yl)-2,5-diphenyltetrazolium bromide (MTT) assay was carried out to determine the survival rate of cells against cytotoxicity by NMDA in nerve cells. Primarily cultured white mouse hippocampus nerve cells were cultured in a 24-well plate, to which a Neurobasal/B27 (Gibco, Grand Island N.Y.) medium including 0.5 mM L-glutamine, 25 μM glutamate, 25 μM 2-mercaptoethanol, 100 U/ml penicillin and 100 μg/ml streptomycin was added for 6-14 days. The cells were pretreated with 100 μg/ml GTS and 10 μM Rg3 using a Mg^2+ free HEPES buffered solution including 1 μM glycine for 1 minute and then treated with NMDA for 10 minutes. Thereafter, the medium was exchanged with the normal culture medium. Twenty-four hours after such treatment, the cells were treated directly with a 50 μl MTT solution in phosphate buffered saline (PBS) (1 mg/ml). Four hours after MTT treatment, the supernatant was removed, and the produced formazan was resolved in 100 μl dimethylsulfoxide (DMSO). Optical density at 560 nm was read using an automated spectrophotometric plate reader.

| Compound | glutamate-induced neurotoxicity in cultured cortical neuron, in words [1] | % inhibition of NMDA receptor-mediated [Ca^2+]i infulx ([3]; 1 μM) | inhibition effect for NMDA receptor activity, screening of pure 20(S) compounds, in words [3] | NMDA receptor-mediated Ca^2+ influx inhibition, comparison of isomer forms, in words [3] | cell viability against neurotoxicity caused by NMDA, in words [5] | other results |
| --- | --- | --- | --- | --- | --- | --- |
| CC(C)=CCC[C@](C)(O[C@@H]1O[C@H](CO[C@@H]2O[C@H](CO)[C@@H](O)[C@H](O)[C@H]2O)[C@@H](O)[C@H](O)[C@H]1O)[C@H]1CC[C@]2(C)[C@@H]1[C@H](O)C[C@@H]1[C@@]3(C)CC[C@H](O[C@@H]4O[C@H](CO)[C@@H](O)[C@H](O)[C@H]4O[C@@H]4O[C@H](CO)[C@@H](O)[C@H](O)[C@H]4O)C(C)(C)[C@@H]3CC[C@]12C [ginsenoside Rb1, reference compound] | inhibited |  |  |  |  | death of hippocampus nerve cells during cerebral ischemia, in words [2]: inhibits death of hippocampus nerve cells |
| CC(C)=CCC[C@](C)(O)[C@H]1CC[C@]2(C)[C@@H]1[C@H](O)C[C@@H]1[C@@]3(C)CC[C@H](O[C@@H]4O[C@H](CO)[C@@H](O)[C@H](O)[C@H]4O)C(C)(C)[C@@H]3CC[C@]12C [20(S)-ginsenoside Rh2] |  | 47.1 ± 4.3% | most excellent inhibition effect | superior effect to the mixture of S-form and R-form isomers |  |  |
| CC(C)=CCC[C@](C)(O)[C@H]1CC[C@]2(C)[C@@H]1[C@H](O)C[C@@H]1[C@@]3(C)CC[C@H](O[C@@H]4O[C@H](CO)[C@@H](O)[C@H](O)[C@H]4O[C@@H]4O[C@H](CO)[C@@H](O)[C@H](O)[C@H]4O)C(C)(C)[C@@H]3CC[C@]12C [20(S)-ginsenoside Rg3] |  | 30.4 ± 2.3% | most excellent inhibition effect |  |  |  |
| CC(C)=CCC[C@](C)(O)[C@H]1CC[C@]2(C)[C@@H]1[C@H](O)C[C@@H]1[C@@]3(C)CC[C@H](O[C@@H]4O[C@H](CO)[C@@H](O)[C@H](O)[C@H]4O[C@@H]4O[C@H](CO)[C@@H](O)[C@H](O)[C@H]4O)C(C)(C)[C@@H]3CC[C@]12C [ginsenoside Rg3] | inhibited | 31.2 ± 2.5% |  | equivalent efficacy regardless of an S-form or R-form isomer and their mixture | effectively increase cell viability | NMDA receptor-mediated inward current, in words [4]: inhibits the inward current; NMDA receptor inhibition efficiency, screening of 10 ginsenosides, in words ([3]; 10 μM, ginsenosides including isomers of C-20 position, FIGS. 2A and 2B): superior to those of other ginsenosides; IC50 ([3]; Ca2+ influx on NMDA in cultured hippocampus nerve cell, read-out: IC50 of NMDA receptor inhibition (concentration dependence, FIG. 2C)): 3.8 µM |
| CC(C)=CCC[C@](C)(O)[C@H]1CC[C@]2(C)[C@@H]1[C@H](O)C[C@@H]1[C@@]3(C)CC[C@H](O[C@@H]4O[C@H](CO)[C@@H](O)[C@H](O)[C@H]4O)C(C)(C)[C@@H]3CC[C@]12C [ginsenoside Rh2] |  |  |  |  |  | % inhibition of NMDA receptor-mediated [Ca^2+]i infulx ([3]; 10 μM): 18.6 ± 2.7 % |
| N[C@H](CCCP(=O)(O)O)C(=O)O [D-APV, D(−)-2-amino-5-phosphono-pentanoic acid, reference compound] |  |  |  |  | effectively increase cell viability | Ca^2+ concentration ([Ca^2+]i) after NMDA application, in words ([3]; FIG. 1, repeated NMDA applications): significantly decreased |
